Test: xn = mol fraction of the nth substance listed
Details: 298.15 K, 101 kPa

Work on `CCCC[N+]1(C)CCCC1.O=S(=O)([N-]S(=O)(=O)C(F)(F)F)C(F)(F)F` + O yielded a speed of sound (x2 = 0.0092) of 1267.8 m/s, a speed of sound (x2 = 0.0139) of 1267.7 m/s and a speed of sound (x2 = 0.0228) of 1267.8 m/s. The speed of sound (x2 = 0.0467) was 1268.3 m/s and the speed of sound (x2 = 0.2014) was 1273.9 m/s.
Compound `CCCC[n+]1ccn(C)c1.O=S(=O)([N-]S(=O)(=O)C(F)(F)F)C(F)(F)F` + O has a speed of sound (x2 = 0.012) of 1226.2 m/s, a speed of sound (x2 = 0.1166) of 1228.4 m/s and a speed of sound (x2 = 0.1843) of 1230.3 m/s.
With `CCCn1cc[n+](C)c1.O=S(=O)([N-]S(=O)(=O)C(F)(F)F)C(F)(F)F` + O the speed of sound (x2 = 0.0016) was 1230.2 m/s, the speed of sound (x2 = 0.0556) was 1231.7 m/s and the speed of sound (x2 = 0.2358) was 1236 m/s.
In the case of `CC[n+]1ccn(C)c1.N#C[S-]` + O, the speed of sound (x2 = 0.153) is reported as 1848.1 m/s and the speed of sound (x2 = 0.204) is reported as 1847.8 m/s.
